{"source": "BindingDB's records for patent US11739093", "about": "(Revolution Medicines, 2023)", "molecular_target": "T1, Tyrosine-protein phosphatase non-receptor type 11 (Homo sapiens, UniProt Q06124)", "T1 sequence (Q06124 whole entry)": "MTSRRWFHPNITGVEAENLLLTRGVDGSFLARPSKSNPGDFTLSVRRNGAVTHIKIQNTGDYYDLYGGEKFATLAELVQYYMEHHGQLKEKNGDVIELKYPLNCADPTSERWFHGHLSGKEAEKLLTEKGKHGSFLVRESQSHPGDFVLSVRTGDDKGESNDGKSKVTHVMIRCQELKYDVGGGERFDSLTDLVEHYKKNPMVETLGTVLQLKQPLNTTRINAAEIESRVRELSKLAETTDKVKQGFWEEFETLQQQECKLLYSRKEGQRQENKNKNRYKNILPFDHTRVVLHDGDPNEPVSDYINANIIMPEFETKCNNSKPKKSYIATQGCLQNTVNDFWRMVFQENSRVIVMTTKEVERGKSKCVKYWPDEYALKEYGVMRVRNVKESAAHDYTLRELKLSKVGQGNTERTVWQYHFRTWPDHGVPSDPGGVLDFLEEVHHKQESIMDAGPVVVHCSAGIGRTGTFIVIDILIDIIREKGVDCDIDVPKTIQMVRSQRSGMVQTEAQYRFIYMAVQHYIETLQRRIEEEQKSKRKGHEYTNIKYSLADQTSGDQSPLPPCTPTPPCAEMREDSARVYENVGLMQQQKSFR", "test": "SHP2 Allosteric Inhibition Assay", "description": "The phosphatase reactions were performed at room temperature in 96-well black polystyrene plate, flat bottom, non-binding surface (Corning, Cat #3650) using a final reaction volume of 100 μL and the following assay buffer conditions: 50 mM HEPES, pH 7.2, 100 mM NaCl, 0.5 mM EDTA, 0.05% P-20, 1 mM DTT. The inhibition of SHP2 by compounds of the disclosure (concentrations varying from 0.00005-10 μM) was monitored using an assay in which 0.2 nM of SHP2 was incubated with 0.5 μM of Activating Peptide 1 (sequence: H2 N-LN(pY)IDLDLV(dPEG8)LST(pY)ASINFQK-amide) or Activating Peptide 2 (sequence: H2 N-LN(pY)AQLWHA(dPEG8)LTI(pY)ATIRRF-amide). After 30-60- minutes incubation at 25° C., the surrogate substrate DiFMUP (Invitrogen, Cat #D6567) was added to the reaction and activity was determined by a kinetic read using a microplate reader (Envision, Perkin-Elmer or Spectramax M5, Molecular Devices). The excitation and emission wavelengths were 340 nm and 450 nm, respectively. Initial rates were determined from a linear fit of the data, and the inhibitor dose response curves were analyzed using normalized IC50 regression curve fitting with control-based normalization."}
{"smiles": "Cc1nc(N2CCC3(CC2)CO[C@@H](C)[C@H]3N)c2ccnn2c1Sc1ccnc(N)c1Cl", "note": "[US11739093, Compound 3]", "values": [{"measurement": "IC50", "value": 34, "unit": "nM"}]}
